In patent US8828992B2, “Substituted azole derivatives, pharmaceutical composition containing the derivatives, and method for treating Parkinson's disease using the same” (priority 2009, dated 2014):
Like-named read-outs stand apart in the source and are kept apart here.

What was measured:
MPTP-induced mouse model = experiment: Tail suspension test in MPTP-induced mouse model of Parkinson's disease; assay type: in vivo; settings: administration concentration 10 (10 mg/kg), oral, 7 days after MPTP, % of control group (Sham); for response vs control in vivo at 10 mg/kg: Mus musculus, 168 h, read-out: Mobility (%)
Protocol: A. MPTP (1-methyl-4-phenyl-1,2,3,6-tetrahydropyridine) and drug treatment MPTP (20 mg/kg, free base; Sigma, St. louis, Mo.) was administered to an 8 week old (20-25 g) male C57BL/6 test mouse intraperitoneally three times a day at the interval of 2 hours to construct a model (Breidert et al., 2002; Lichuan Yang, Shuei Sugama, Jason W. Chirichigno, Jason Gregorio, Stefan Lorenzl, Dong H. Shin, Susan E. Browne, Yoshinori Shimizu, Tong H. Joh, M. Flint Beal, l and David S. Alber. (2003) Minocycline Enhances MPTP Toxicity to Dopaminergic Neurons. J Neurosci Res. 74:278-285). In order to observe the protective effects of the compound as a candidate drug, the compound was dissolved in a solution containing 10% dimethylsulfoxide (DMSO), 10% Cremophor, and 40% polyethyleneglycol (PEG), […] treatment. Rasagiline as a control drug was also dissolved in the same solution, and the resulting solution was administered at the same doses in the same manner as above. A control group (Sham) in which MPTP was not administered was constructed by intraperitoneally administering saline solution to the group instead of MPTP in the same manner as above and orally administering the same solution 1 hour before and after PBS treatment.
A tail suspension test was performed in order to measure the induction degree of behavioral dysfunctions in accordance with administration of MPTP and a drug. At 7 days after administration of the drug, a round stainless steel rod (width: 1 cm) was affixed to a cage (width: 16 cm, height: 40 cm) 35 cm above from the surface shielded by black wooden structures in the left and right sides to perform experiments. The time for which the animal moved for a total period of 6 minutes was measured in seconds to evaluate the drug action.
Mobility refers to an expression of the measurement of the time for which the animal moved with its tail hung high as a percentage compared to the measurement of a control group.

[1] = biological target: T1, Monoamineoxidase B type human-derived enzyme (Homo sapiens, UniProt P27338); experiment: Inhibitory effects on the activity of MAO-B (Amplex Red fluorescence, benzylamine substrate); assay type: biochemical; settings: for inhibition at 0.01 µM: read-out: Inhibitory effects (%) on the activity of MAO-B
T1 sequence (P27338 1-520): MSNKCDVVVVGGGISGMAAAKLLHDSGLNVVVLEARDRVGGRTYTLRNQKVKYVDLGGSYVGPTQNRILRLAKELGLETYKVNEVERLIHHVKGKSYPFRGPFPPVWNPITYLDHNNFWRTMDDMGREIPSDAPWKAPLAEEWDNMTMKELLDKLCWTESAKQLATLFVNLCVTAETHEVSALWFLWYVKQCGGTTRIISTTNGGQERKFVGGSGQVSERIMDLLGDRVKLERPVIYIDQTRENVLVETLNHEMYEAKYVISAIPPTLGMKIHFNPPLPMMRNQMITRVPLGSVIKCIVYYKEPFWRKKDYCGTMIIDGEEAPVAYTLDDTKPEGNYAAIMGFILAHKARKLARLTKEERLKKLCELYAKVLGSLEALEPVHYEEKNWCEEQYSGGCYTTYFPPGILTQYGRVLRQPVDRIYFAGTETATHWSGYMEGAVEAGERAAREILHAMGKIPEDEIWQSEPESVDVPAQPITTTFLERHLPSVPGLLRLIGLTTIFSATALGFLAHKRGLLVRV
Outline: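 Human MAO-B, diluted 1:200 in 0.05 M sodium phosphate pH 7.4, was pre-incubated with compound for 30 min. It was then mixed 1:1 with working buffer holding 400 μM Amplex Red, 2 U/ml HRP and 2 mM benzylamine (working-buffer levels). Fluorescence (Ex 563/Em 587 nm) was read over 30 min.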

[2] = test system: dopamine (DA) in the striatum of a MPTP-treated mouse; experiment: Combined administration with Levodopa group: dopamine in the striatum of MPTP-treated mouse (HPLC); assay type: in vivo; settings: compound 1 mg/kg PO co-administered with Levodopa group (Levodopa 50 mg/kg + Benzerazide 25 mg/kg IP); for Concentration of dopamine compared to a control group %, 1 hr: 1 hr after Levodopa; for Concentration of dopamine compared to a control group %, 3 hr: 3 hr after Levodopa
Protocol: MPTP (20 mg/kg, free base; Sigma, St. louis, Mo.) was administered to an 8 week old (20-25 g) male C57BL/6 test mouse intraperitoneally at the interval of 2 hours to construct a model.
In order to observe the effects of combined administration of a compound of the present invention and Levodopa, the compound of the present invention was dissolved in a solution containing 0.02 ml of dimethylsulfoxide (DMSO), 0.02 ml of Cremophor, 0.08 ml of polyethyleneglycol (PEG), and 0.08 ml of physiological saline. The resulting solution was orally administered at doses of 1 mg/kg one week after the MPTP treatment, and a Levodopa group containing Levodopa at 50 mg/kg and Benzerazide at 25 mg/kg was intraperitoneally administered 1 hour later.
A single administration of the Levodopa group in the following Table 4 indicates values resulting from a MPTP (toxin) treatment followed by an administration of the Levodopa group compared to the treatment results of a Levodopa single administration group of Levodopa and Benzerazide.
At 1 hour and 3 hours after administration of Levodopa, the animals were sacrificed by cervical vertebra dislocation and the brain tissues were immediately isolated from the animals. 0.5 me of iced solution for HPLC analysis (0.1 M perchloric acid and 0.1 mM EDTA) was added to a striatum obtained from the isolated brain tissues, and an ultrasonic grinder was used to prepare a tissue homogenate. The tissue homogenate was centrifuged at 12,000 rpm for 15 minutes, and its supernatant was filtered through nitrocellulose membrane filter (0.2 um, Millipore). For HPLC analysis, uBondapak™ C18 column (4.6×150 mm, particle size 10 μm: Shisheido, Japan) was used, the flow rate of the mobile phase (0.07 M monobasic sodium phosphate, 1 mM sodium octasulfonic acid, 0.1 uM EDTA, 5% acetonitrile, pH 3.2) was maintained at 0.5 me/min, and the electrode potential of the electrochemical detector (CouloChem III, ESA, Japan) was set at 350 mV.

Molecule | response vs control in vivo at 10 mg/kg (MPTP-induced mouse model) [%] | inhibition at 0.01 µM [1] [%] | Concentration of dopamine compared to a control group %, 1 hr [2] [%] | Concentration of dopamine compared to a control group %, 3 hr [2] [%] | inhibition at 0.01 µM ([1]; treatment concentration 10 nM) [%] | Mobility (%) (MPTP-induced mouse model) | Inhibitory effects (%) on the activity of MAO-B ([1]; treatment concentration 10 nM) [%]
NC(=O)OCc1cc(-c2ccc(OCc3ccccc3)cc2)ns1 [Example 3, carbamic acid 3-(4-benzyloxy-phenyl)-isothiazol-5-ylmethyl ester] | 70.3 | 95.2 | 173.43 | 39.3 |  |  | 
NC(=O)OCc1cc(-c2ccc(OCc3ccccc3F)cc2)no1 [Example 11, carbamic acid 3-[4-(2-fluoro-benzyloxy)-phenyl]-isoxazol-5-ylmethyl ester] | 82.2 |  |  |  | 101 |  | 
NC(=O)OCc1cc(-c2ccc(OCc3c(F)cccc3F)cc2)no1 [Example 14, carbamic acid 3-[4-(2,6-difluoro-benzyloxy)-phenyl]-isoxazol-5-ylmethyl ester] | 75.3 |  |  |  | 96 |  | 
CCCCOc1ccc(-c2cc(COC(N)=O)on2)cc1 [Example 43, carbamic acid 3-(4-butoxy-phenyl)-isoxazol-5-ylmethyl ester] | 71 | 96.8 |  |  |  |  | 
NC(=O)OCc1cc(-c2ccc(OCSC(F)(F)F)cc2)no1 [Example 58, carbamic acid 3-(4-trifluoromethylsulfanylmethoxy-phenyl)-isoxazol-5-ylmethyl ester] | 98.9 | 88.1 |  |  |  |  | 
NC(=O)OCc1cc(-c2ccc(OCc3cccnc3)cc2)no1 [Example 66, Carbamic acid 3-[4-(pyridin-3-ylmethoxy)-phenyl]-isoxazol-5-ylmethyl ester] | 74.9 | 87.3 |  |  |  |  | 
Cc1noc(C)c1COc1ccc(-c2cc(COC(N)=O)on2)cc1 [Example 72, carbamic acid 3-[4-(3,5-dimethyl-isoxazol-4-ylmethoxy)-phenyl]-isoxazol-5-ylmethyl ester] | 91.4 |  |  |  | 87.9 |  | 
NC(=O)OCc1cc(-c2ccc(NCc3ccccc3)cc2)no1 [Example 74, Carbamic acid 3-(4-benzylamino-phenyl)-isoxazol-5-ylmethyl ester] | 96.9 | 84.5 | 153.7 | 74.7 |  |  | 
NC(=O)OCc1cc(-c2ccc(NCc3c(F)cccc3F)cc2)no1 [Example 79, Carbamic acid 3-[4-(2,6-difluoro-benzylamino)-phenyl]-isoxazol-5-ylmethyl ester] | 99.4 |  | 87.6 | 115.2 | 84.6 |  | 
NC(=O)OCc1cc(-c2ccc(NCc3ccc(F)cc3F)cc2)no1 [Example 81, Carbamic acid 3-[4-(2,4-difluoro-benzylamino)-phenyl]-isoxazol-5-ylmethyl ester] | 72.6 |  |  |  | 91.4 |  | 
NC(=O)OCc1cc(-c2ccc(NCc3ccc(F)c(F)c3)cc2)no1 [Example 84, Carbamic acid 3-[4-(3,4-difluoro-benzylamino)-phenyl]-isoxazol-5-ylmethyl ester] | 97.7 |  | 153.7 | 144.3 | 88.5 |  | 
Cc1cccc(CNc2ccc(-c3cc(COC(N)=O)on3)cc2)c1 [Example 101, Carbamic acid 3-[4-(3-methyl-benzylamino)-phenyl]-isoxazol-5-ylmethyl ester] | 78.3 |  |  |  | 80.5 |  | 
COc1ccccc1CNc1ccc(-c2cc(COC(N)=O)on2)cc1 [Example 104, Carbamic acid 3-[4-(2-methoxy-benzylamino)-phenyl]-isoxazol-5-ylmethyl ester] | 82 |  |  |  | 89.1 |  | 
NC(=O)OCc1cc(-c2ccc(NCc3cccs3)cc2)no1 [Example 110, carbamic acid 3-{4-[(thiophen-2-ylmethyl)-amino]-phenyl}-isoxazol-5-ylmethyl ester] | 80.7 | 80.8 |  |  |  |  | 
NC(=O)OCc1cc(-c2ccc(NCc3ccoc3)cc2)no1 [Example 111, carbamic acid 3-{4-[(furan-3-ylmethyl)-amino]-phenyl}-isoxazol-5-ylmethyl ester] | 78.8 | 69 |  |  |  |  | 
Fc1cccc(COc2ccc(-c3cc(Cn4ccnc4)on3)cc2)c1 [Example 142, 3-[4-(3-fluoro-benzyloxy)-phenyl]-5-imidazol-1-ylmethyl-isoxazole] | 101 |  | 174.5 | 65.5 | 89.5 |  | 
c1ccc(COc2ccc(-c3cc(CN4CCCC4)on3)cc2)cc1 [Example 148, 3-(4-benzyloxy-phenyl)-5-pyrrolidin-1-ylmethyl-isoxazole] | 95.9 |  |  |  | 79 |  | 
[carbamic acid 3-(4-methylsulfanylmethoxy-phenyl)-isoxazol-5-ylmethyl ethyl ester [Example 48] |  |  |  |  |  | 74.6 | 48.4
